From patent US9914722B2, “Compounds for treating spinal muscular atrophy” (PTC Therapeutics Inc., priority 2012, dated 2018)

Assays:
[1] = test system: full length SMN2 minigene mRNA containing SMN2 exon 7 (SMN2-A minigene); test: SMN2 minigene mRNA splicing RT-qPCR assay in cultured cells; type: cell-based, human; settings: Homo sapiens, HEK293-H; HEK293H cells stably transfected with SMN2-A minigene, 24 hours, 7-point concentration curve; concentration giving 1.5-fold SMN2 full length mRNA vs vehicle; read-out: EC1.5x for production of full length SMN2 mRNA
Experimental: SMN2 Minigene mRNA Splicing RT-qPCR Assay in Cultured Cells
The reverse transcription-quantitative PCR-based (RT-qPCR) assay is used to quantify the level of the full length SMN2 minigene mRNA containing SMN2 exon 7 in a HEK293H cell line stably transfected with said minigene and treated with a test compound.
Protocol. HEK293H cells stably transfected with the SMN2-A minigene construct described above (10,000 cells/well) are seeded in 200 μL of cell culture medium (DMEM plus 10% FBS, with 200 μg/mL hygromycin) in 96-well flat-bottom plates and the plate is immediately swirled to ensure proper dispersal of cells, forming an even monolayer of cells. Cells are allowed to attach for at least 4-6 hours. Test compounds are serially diluted 3.16-fold in 100% DMSO to generate a 7-point concentration curve. A solution of test compound (1 μL, 200× in DMSO) is added to each cell-containing well and the plate is incubated for 24 hours in a cell culture incubator (37° C., 5% CO2, 100% relative humidity). Two replicates are prepared for each test compound concentration. The cells are then lysed in Cells-To-Ct lysis buffer and the lysate is stored at −80° C.
Primer SMN Forward A (SEQ ID NO. 1) hybridizes to a nucleotide sequence in exon 7 (nucleotide 22 to nucleotide 40), primer SMN Reverse A (SEQ ID NO. 2) hybridizes to a nucleotide sequence in the coding sequence of Firefly luciferase, SMN Probe A (SEQ ID NO. 3) hybridizes to a nucleotide sequence in exon 7 (nucleotide 50 to nucleotide 54) and exon 8 (nucleotide 1 to nucleotide 21). The combination of these three oligonucleotides detects only SMN1 or SMN2 minigenes (RT-qPCR) and will not detect endogenous SMN1 or SMN2 genes.
The SMN forward and reverse primers are used at final concentrations of 0.4 μM. The SMN probe is used at a final concentration of 0.15 μM. The GAPDH primers are used at final concentrations of 0.2 μM and the probe at 0.15 μM.
The SMN2-minigene GAPDH mix (15 μL total volume) is prepared by combining 7.5 μL of 2×RT-PCR buffer, 0.4 μL of 25×RT-PCR enzyme mix, 0.75 μL of 20×GAPDH primer-probe mix, 4.0075 μL of water, 2 μL of 10-fold diluted cell lysate, 0.06 μL of 100 μM SMN forward primer, 0.06 μL of 100 μM SMN reverse primer, and 0.225 μL of 100 μM SMN probe.
PCR is carried out at the following temperatures for the indicated time: Step 1: 48° C. (15 min); Step 2: 95° C. (10 min); Step 3: 95° C. (15 sec); Step 4: 60° C. (1 min); then repeat Steps 3 and 4 for a total of 40 cycles.
Each reaction mixture contains both SMN2-A minigene and GAPDH primers/probe sets (multiplex design), allowing simultaneous measurement of the levels of two transcripts.
Two SMN spliced products are generated from the SMN2 minigene. The first spliced product containing exon 7, corresponding to SMN2 full length mRNA, is referred to herein using the term “SMN2 minigene FL.” The second spliced product lacking exon 7 is referred to herein using the term “SMN2 minigene Δ7.”
The increase of SMN2 minigene FL mRNA relative to that in cells treated with vehicle control is determined from real-time PCR data using a modified ΔΔCt method (as described in Livak and Schmittgen, Methods, 2001, 25:402-8). The amplification efficiency (E) is calculated from the slope of the amplification curve for SMN2 minigene FL and GAPDH mRNA individually. The abundance of SMN2 minigene FL and GAPDH mRNA are then calculated as (1+E)^−Ct, where Ct is the threshold value for each amplicon. The abundance of SMN2 minigene FL is normalized to GAPDH abundance. The normalized SMN2 minigene FL abundance from test compound-treated samples is then divided by normalized SMN2 minigene FL abundance from vehicle-treated cells to determine the level of SMN2 FL mRNA relative to vehicle control. […]

[2] = test system: Smn protein; test: Smn protein assay (Smn HTRF) in cultured cells; type: cell-based, human; settings: Homo sapiens, Fibroblast, GM03813 SMA Type 1 patient fibroblasts, 48 hours, HTRF; for maximal fold induction: 7-point concentration data, relative to vehicle, read-out: maximum fold (Fold) increase of Smn protein; for EC (1.5-fold): concentration producing 1.5 times Smn protein vs DMSO vehicle, read-out: EC1.5x for Smn protein expression
Experimental: Smn Protein Assay in Cultured Cells
The Smn HTRF (homogeneous time resolved fluorescence) assay is used to quantify the level of Smn protein in SMA patient fibroblast cells treated with test compounds.
Protocol. Cells are thawed and cultured in DMEM-10% FBS for 72 hours. Cells are trypsinized, counted and re-suspended to a concentration of 25,000 cells/mL in DMEM-10% FBS. The cell suspension is plated at 5,000 cells per well in a 96 well microtiter plate and incubated for 3 to 5 hours. […] Test compounds are serially diluted 3.16-fold in 100% DMSO to generate a 7-point concentration curve. 1 μL of test compound solution is transferred to cell-containing wells and cells are incubated for 48 hours in a cell culture incubator (37° C., 5% CO2, 100% relateive humidity). Triplicate samples are set up for each test compound concentration. After 48 hours, the supernatant is removed from the wells and 25 μL of the RIPA lysis buffer, containing protease inhibitors, is added to the wells and incubated with shaking at room temperature for 1 hour. 25 μL of the diluent is added and then 35 μL of the resulting lysate is transferred to a 384-well plate, where each well contains 5 μL of the antibody solution (1:100 dilution of anti-SMN d2 and anti-SMN kryptate in SMN reconstitution buffer). The plate is centrifuged for 1 minute to bring the solution to the bottom of the wells, then incubated overnight at room temperature. Fluorescence for each well of the plate at 665 nm and 620 nm is measured on an EnVision multilabel plate reader (Perkin-Elmer).
The normalized fluorescence signal is calculated for each sample, Blank and vehicle control well by dividing the signal at 665 nm by the signal at 620 nm. Normalizing the signal accounts for possible fluorescence quenching due to the matrix effect of the lysate. The AF value (a measurement of Smn protein abundance as a percent value) for each sample well is calculated by subtracting the normalized average fluorescence for the Blank control wells from the normalized fluorescence for each sample well, then dividing this difference by the normalized average fluorescence for the Blank control wells and multiplying the resulting value by 100. The ΔF value for each sample well represents the Smn protein abundance from test compound-treated samples. The ΔF value for each sample well is divided by the ΔF value for the vehicle control wells to calculate the fold increase in Smn protein abundance relative to the vehicle control.
For compounds of Formula (I) or a form thereof disclosed herein, Table 9 provides the EC1.5x for Smn protein expression that was obtained from the 7-point concentration data generated for each test compound according to the procedure of Biological Example 7. The term “EC1.5x for Smn protein expression” is defined as that concentration of test compound that is effective in producing 1.5 times the amount of Smn protein in an SMA patient fibroblast cell compared to the amount produced from the DMSO vehicle control. An EC1.5x for Smn protein expression between >3 μM and ≦10 μM is indicated by one star (*), an EC1.5x between >1 μM and ≦3 μM is indicated by two stars (**), an EC1.5x between >0.3 μM and ≦1 μM is indicated by three stars (***) and an EC1.5x≦0.3 μM is indicated by four stars (****).
For compounds of Formula (I) or a form thereof disclosed herein, Table 10 provides the maximum fold (Fold) increase of Smn protein that was obtained from the 7-point concentration data generated for each test compound according to the procedure of Biological Example 7. A maximum fold increase ≦1.2 is indicated by one star (*), a fold increase between >1.2 and ≦1.35 is indicated by two stars (**), a fold increase between >1.35 and ≦1.5 is indicated by three stars (***), a fold increase between >1.5 and ≦1.65 is indicated by four stars (****) and a fold increase >1.65 is indicated by five stars (*****).

Row | melting point [°C] | SMILES | EC (1.5-fold) [1] [µM] | maximal fold induction [2] | EC (1.5-fold) [2] [µM]
1 | 196 to 200 | COc1ccc(-c2cc(=O)c3cc(N4CCN[C@@H](C)C4)ccc3o2)cn1 [Cpd 56, 2-(6-methoxypyridin-3-yl)-6-[(3S)-3-methylpiperazin-1-yl]-4H-chromen-4-one] | 0.3 to 1 | 1.35 to 1.5 | 
2 | 140 to 142 | C[C@H]1CN(c2ccc3oc(-c4nc5ccccc5s4)cc(=O)c3c2)CCN1 [Cpd 36, 2-(1,3-benzothiazol-2-yl)-6-[(3S)-3-methylpiperazin-1-yl]-4H-chromen-4-one] | 0.3 to 1 | 1.5 to 1.65 | 1 to 3
3 | 207 to 211 | O=c1cc(-c2cn3ccccc3n2)oc2ccc(N3CCNCC3)cc12 [Cpd 8, 2-(imidazo[1,2-a]pyridin-2-yl)-6-(piperazin-1-yl)-4H-chromen-4-one] | 0.3 to 1 | 1.5 to 1.65 | 3 to 10
4 | 177 to 179 | COc1ccc(-c2cc(=O)c3cc(N4CCNCC4)ccc3o2)cc1OC [Cpd 20, 2-(3,4-dimethoxyphenyl)-6-(piperazin-1-yl)-4H-chromen-4-one] | ≤ 0.1 | > 1.65 | 0.3 to 1
5 | 106 to 108 | COc1ccc(-c2cc(=O)c3cc(N4CCCN(C)CC4)ccc3o2)cc1OC [Cpd 26, 2-(3,4-dimethoxyphenyl)-6-(4-methyl-1,4-diazepan-1-yl)-4H-chromen-4-one] | 3 to 30 | 1.35 to 1.5 | 
6 | 180 to 182 | CCOc1ccc(-c2cc(=O)c3cc(N4CCNCC4)ccc3o2)cc1 [Cpd 41, 2-(4-ethoxyphenyl)-6-(piperazin-1-yl)-4H-chromen-4-one] | 0.3 to 1 | ≤ 1.2 | 
7 | 170 to 172 | COc1ccc(-c2cc(=O)c3cc(N4CCN[C@H](C)C4)ccc3o2)cc1Cl [Cpd 61, 2-(3-chloro-4-methoxyphenyl)-6-[(3R)-3-methylpiperazin-1-yl]-4H-chromen-4-one] | 0.1 to 0.3 | 1.2 to 1.35 | 
8 | 172 to 174 | COc1ccc(-c2cc(=O)c3cc(N4CCN[C@@H](C)C4)ccc3o2)cc1Cl [Cpd 59, 2-(3-chloro-4-methoxyphenyl)-6-[(3S)-3-methylpiperazin-1-yl]-4H-chromen-4-one] | ≤ 0.1 | 1.5 to 1.65 | ≤ 0.3
9 | 174 to 176 | O=c1cc(-c2cccc(C(F)(F)F)c2)oc2ccc(N3CCNCC3)cc12 [Cpd 67, 6-(piperazin-1-yl)-2-[3-(trifluoromethyl)phenyl]-4H-chromen-4-one] | 0.1 to 0.3 | 1.5 to 1.65 | 0.3 to 1
10 | 179 to 181 | COc1cc(F)c(-c2cc(=O)c3cc(N4CCN[C@@H](C)C4)ccc3o2)cc1OC [Cpd 46, 2-(2-fluoro-4,5-dimethoxyphenyl)-6-[(3S)-3-methylpiperazin-1-yl]-4H-chromen-4-one] | 0.3 to 1 | 1.5 to 1.65 | 1 to 3
11 | 140 to 142 | CCN1CCN(c2ccc3oc(-c4cccnc4)cc(=O)c3c2)CC1 [Cpd 3, 6-(4-ethylpiperazin-1-yl)-2-(pyridin-3-yl)-4H-chromen-4-one] | 3 to 30 | ≤ 1.2 | 
12 | 126 to 128 | CC(C)Oc1ccc(-c2cc(=O)c3cc(N4CCNCC4)ccc3o2)cc1 [Cpd 49, 6-(piperazin-1-yl)-2-[4-(propan-2-yloxy)phenyl]-4H-chromen-4-one] | 1 to 3 | ≤ 1.2 | 

Row | SMILES | melting point [°C] | EC (1.5-fold) [1] [µM] | maximal fold induction [2] | EC (1.5-fold) [2] [µM]
13 | CN1CCN(c2ccc3oc(-c4ccccn4)cc(=O)c3c2)CC1 [Cpd 12, 6-(4-methylpiperazin-1-yl)-2-(pyridin-2-yl)-4H-chromen-4-one] | 150 to 152 | 3 to 30 | ≤ 1.2 | 
14 | O=c1cc(-c2cccnc2)oc2ccc(N3CCNCC3)cc12 [Cpd 1, 6-(piperazin-1-yl)-2-(pyridin-3-yl)-4H-chromen-4-one] | 177 to 180 | 0.3 to 1 | 1.35 to 1.5 | 
15 | O=c1cc(-c2cncc(F)c2)oc2ccc(N3CCNCC3)cc12 [Cpd 74, 2-(5-fluoropyridin-3-yl)-6-(piperazin-1-yl)-4H-chromen-4-one] | 182 to 184 | 0.3 to 1 | 1.5 to 1.65 | 1 to 3
